Laboratory results taken from paper PMC4099110, “Synthesis and Evaluation of Novel Pyrroles and Pyrrolopyrimidines as Anti-Hyperglycemic Agents” (BioMed Research International, 2014).
Several values for one entry are separate records, joined by “and”; a condition that tells them apart may be missing. Identical values can stand only once.

Assays:
Male Wistar rats = assay: Sucrose-Loaded Model (SLM), blood glucose AUC; format: in vivo, rat; conditions: oral gavage, sucrose load 10 gm/kg, mean AUC of blood glucose 30-120 min, dose equivalent to Glimepiride 4 mg/kg by M.wt, vs untreated normal control
Procedure: The complete course of the experiment was conducted using male Wistar albino rats (200–250 g), reared and maintained in the animal house of the institution and provided free access to pelleted food and water ad libitum. The rats were maintained in a controlled environment (12 h light and dark cycle) for about a week for acclimatization. The protocol of the study was approved by the animal ethics committee of the Faculty of Pharmacy, Helwan University (10-01-2012). The study was conducted in accordance with the EC, directive 86/609/EEC for animal experiments.
Glimepiride (Amaryl) was used as a standard antidiabetic (4 mg/kg) in 1% gum acacia and administered orally. Equivalent doses of all derivatives were calculated according to their molecular weight [M·wt].
Male Wistar rats were fasted overnight. Blood was collected initially and then the compounds were given to corresponding groups consisting of six rats each by oral gavage. A sucrose load of (10 gm/kg) body weight was given to each rat after half an hour posttest treatment. Blood was collected in 30, 60, 90, and 120 min after sucrose load. The percentages (%) fallen in blood glucose level were calculated according to the AUC method.
Data were represented as mean area under curve (AUC) ± SD. Significant differences between groups was tested using GraphPad InStat (Graph software Inc., V 3.05, Ralph Stahlman, Purdue University). Appropriate graphs were plotted using Microsoft Excel 2007. P value less than 0.05 was considered statistically significant.

male Wistar albino rats = assay: Streptozotocin (STZ) model of diabetes, blood glucose AUC; format: in vivo, rat; conditions: for Potency of antihyperglycemic derivatives compared to Amaryl: decrease in blood glucose relative to Amaryl = 100%, model not stated
Procedure: The complete course of the experiment was conducted using male Wistar albino rats (200-250 g), reared and maintained in the animal house of the institution and provided free access to pelleted food and water ad libitum. The rats were maintained in a controlled environment (12 h light and dark cycle) for about a week for acclimatization. The protocol of the study was approved by the animal ethics committee of the Faculty of Pharmacy, […] University (10-01-2012). The study was conducted in accordance with the EC, directive 86/609/EEC for animal experiments. […] Equivalent doses of all derivatives were calculated according to their molecular weight [M·wt]. Diabetes was induced in overnight fasted rats with a single intraperitoneal injection of streptozotocin (STZ) (Sigma-Aldrich, Co., St. Louis, USA. Catalog number: 1001062761) in a dose of 65 mg/kg. STZ was freshly dissolved in ice cold citrate buffer (0.01 M, pH 4.5) prior to injection. […] Group 2, diabetic + Glimepiride ([…]) (4 mg/kg), served as a reference antidiabetic drug. Groups (3-14) were given the various pyrrole derivatives ([…], b, f, and VIIIf, a, resp.). The treated groups administered the […] and different derivatives orally. For each group, blood glucose was estimated at zero, one, two, four, and six hours after oral administration of derivatives using glucometer (Gluco Dr Super Sensor, AllMedicus Co., Ltd., Anyang, Gyeonggi, Korea). Data were represented as mean area under curve (AUC) ± SD. Significant differences between groups was tested using GraphPad InStat (Graph software Inc., V 3.05, Ralph […], Purdue University). Appropriate graphs were plotted using Microsoft Excel 2007.

[1] = In vivo acute toxicity study, serum liver and kidney markers; set-up: species or system rat; conditions: for ALP / ALT / AST / Creatinine: rat serum; for levels of sera ALT, AST, ALP, and creatinine versus control untreated group: rats
Procedure: Alanine aminotransferase (ALT) and aspartate aminotransferase (AST) activities in serum were measured according to the Reitman-Frankel calorimetric transaminase procedure, whereas alkaline phosphatase (ALP) was assayed by the kinetic enzymatic method by measuring the rate of hydrolysis of p-nitrophenyl phosphate by ALP according to Henry; all were measured as indicators of hepatic injury. Serum creatinine levels were assayed as an indicator for renal injury in the samples by a calorimetric method, using commercial diagnostic kits (Diamond Diagnostics, Egypt).

[2] = as above; conditions: rat
[3] = oral, STZ 65 mg/kg i.p. diabetic rats, mean AUC of blood glucose 0-6 h, dose equivalent to Glimepiride 4 mg/kg by M.wt, vs diabetic control

| melting point [°C] | Structure (SMILES) | inhibition in vivo at 4 mg/kg (Male Wistar rats; Rattus norvegicus, 2 h, read-out: % reduction in blood glucose compared to control, SLM) [%] | inhibition in vivo at 4 mg/kg (male Wistar albino rats; Rattus norvegicus, oral, STZ 65 mg/kg i.p. diabetic rats, mean AUC of blood glucose 0-6 h, dose equivalent to Glimepiride 4 mg/kg by M.wt, vs diabetic control, read-out: % reduction in blood glucose compared to control, STZ) [%] | Potency of antihyperglycemic derivatives compared to Amaryl (male Wistar albino rats) | % reduction in blood glucose compared to control, SLM (Male Wistar rats) | % reduction in blood glucose compared to control, STZ (male Wistar albino rats; [3]) | ALP [1] [U/L] | ALT [1] [U/L] | AST [1] [U/L] | Creatinine [1] [mg/dL] | levels of sera ALT, AST, ALP, and creatinine versus control untreated group [1] | death or toxicity symptoms [2] |
| --- | --- | --- | --- | --- | --- | --- | --- | --- | --- | --- | --- | --- |
| – | CCC1=C(C)CN(C(=O)NCCc2ccc(S(=O)(=O)NC(=O)N[C@H]3CC[C@H](C)CC3)cc2)C1=O [Amaryl, Glimepiride, reference compound] | 27.7 | 30.4 | 100% | – | – | – | – | – | – | – | – |
| 158 to 160 | Cc1nc(Cl)c2c(-c3ccccc3)c(-c3ccccc3)n(-c3c(C)n(C)n(-c4ccccc4)c3=O)c2n1 [IVg, 4-(4-Chloro-2-methyl-5,6-diphenyl-7H-pyrrolo[2,3-d]pyrimidin-7-yl)-1,5-dimethyl-2-phenyl-1H-pyrazol-3(2H)-one] | – | – | – | 13 ^ a % | 11.2 ^ a % | – | – | – | – | – | – |
| – | N#Cc1c(-c2ccccc2)c(-c2ccccc2)n(Cc2ccccc2)c1N [Ia] | – | – | 109.4% and 109.43% | 17.4% and 17.4 ^ a % | 33.3% and 33.3 ^ a % | 68.5 ± 12.3 | 17.9 ± 2.7 | 69.4 ± 9.5 | 0.8 ± 0.16 | not significantly changed | did not die or show any toxicity symptoms |
| – | Cc1c(-n2cc(-c3ccccc3)c(C#N)c2N)c(=O)n(-c2ccccc2)n1C [Ie, 2-Amino-1-(1,5-dimethyl-3-oxo-2-phenyl-2,3-dihydro-1H -pyrazol-4-yl)-4-phenyl-1H -pyrrole-3-carbonitrile] | – | – | 97% and 96.99% | 16.7% and 16.7 ^ a % | 29.5% and 29.5 ^ a % | 73.9 ± 13.2 | 20.5 ± 3.1 | 62.7 ± 9.7 | 0.77 ± 0.14 | not significantly changed | did not die or show any toxicity symptoms |
